# Experimental data published in patent publication US20250230193A1, “CYCLIC COMPOUND HAVING SELECTIVE KRAS INHIBITORY EFFECT ON HRAS AND NRAS” (CHUGAI SEIYAKU KABUSHIKI KAISHA, priority 2022, published 2025).
# Tests used:
# [1] = molecular target: GDP-bound NRAS wild-type protein (Homo sapiens, UniProt P01111); assay: Binding to NRAS by surface plasmon resonance (SPR), Single Cycle Kinetics; details: KD ratio NRAS/KRAS, SPR
# [2] = molecular target: GDP-bound HRAS wild-type protein (Homo sapiens, UniProt P01112); assay: Binding to HRAS by surface plasmon resonance (SPR), Single Cycle Kinetics; details: KD ratio HRAS/KRAS, SPR
# GDP-bound HRAS wild-type protein, sequence (P01112 whole entry): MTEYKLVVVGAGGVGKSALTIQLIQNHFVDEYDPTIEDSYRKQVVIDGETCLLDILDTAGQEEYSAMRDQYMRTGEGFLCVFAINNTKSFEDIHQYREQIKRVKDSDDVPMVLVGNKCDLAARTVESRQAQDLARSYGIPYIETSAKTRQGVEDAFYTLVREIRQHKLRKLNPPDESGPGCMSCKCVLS
# GDP-bound NRAS wild-type protein, sequence (P01111 whole entry): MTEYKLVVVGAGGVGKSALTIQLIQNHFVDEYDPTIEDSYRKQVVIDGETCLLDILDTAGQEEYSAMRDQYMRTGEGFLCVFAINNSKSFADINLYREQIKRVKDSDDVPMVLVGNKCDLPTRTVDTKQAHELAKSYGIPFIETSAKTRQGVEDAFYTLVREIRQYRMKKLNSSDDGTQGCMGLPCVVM
smiles,measurement,setting,value
CC[C@H](C)[C@@H]1NC(=O)[C@H](CC(C)C)N(C)C(=O)C[C@@H](C(=O)N2CCOCC2)N(C)C(=O)[C@H](C2CCCC2)N(C)C(=O)C2(CCCC2)NC(=O)[C@@H]2[C@@H](O)CCN2C(=O)[C@H](CCc2cc(F)c(C(F)(F)F)c(F)c2)NC(=O)CN(C)C(=O)[C@H](Cc2ccc(C(F)(F)F)cc2)N2CCCC[C@@H](C2=O)N(C)C(=O)CN(C)C1=O [PP0558],NRAS/KRAS (ratio of KD value with respect to GDP-bound NRAS wild-type protein to KD value with respect to KRAS),[1],B (a compound having 3 or more and less than 10 is denoted as B)
same,HRAS/KRAS (ratio of KD value with respect to GDP-bound HRAS wild-type protein to KD value with respect to KRAS),[2],B (a compound having 3 or more and less than 10 is denoted as B)
CC[C@H](C)[C@@H]1NC(=O)[C@H](CC(C)C)N(C)C(=O)C[C@@H](C(=O)N2CCOCC2)N(C)C(=O)[C@H](C2CCCC2)N(C)C(=O)C2(CC2)NC(=O)[C@@H]2CCCN2C(=O)[C@H](CCc2cc(F)c(C(F)(F)F)c(F)c2)NC(=O)CN(C)C(=O)[C@H](Cc2ccc(C(F)(F)F)cc2)N2CCCC[C@@H](C2=O)N(C)C(=O)CN(C)C1=O [PP0559],NRAS/KRAS (ratio of KD value with respect to GDP-bound NRAS wild-type protein to KD value with respect to KRAS),[1],B (a compound having 3 or more and less than 10 is denoted as B)
same,HRAS/KRAS (ratio of KD value with respect to GDP-bound HRAS wild-type protein to KD value with respect to KRAS),[2],B (a compound having 3 or more and less than 10 is denoted as B)
CC[C@H](C)[C@@H]1NC(=O)[C@H](CC(C)C)N(C)C(=O)C[C@@H](C(=O)N2CCOCC2)N(C)C(=O)[C@H](C2CCCC2)N(C)C(=O)C2(CCC2)NC(=O)[C@@H]2CCCN2C(=O)[C@H](CCc2cc(F)c(C(F)(F)F)c(F)c2)NC(=O)CN(C)C(=O)[C@H](Cc2ccc(C(F)(F)F)cc2)N2CCCC[C@@H](C2=O)N(C)C(=O)CN(C)C1=O [PP0560],NRAS/KRAS (ratio of KD value with respect to GDP-bound NRAS wild-type protein to KD value with respect to KRAS),[1],B (a compound having 3 or more and less than 10 is denoted as B)
same,HRAS/KRAS (ratio of KD value with respect to GDP-bound HRAS wild-type protein to KD value with respect to KRAS),[2],B (a compound having 3 or more and less than 10 is denoted as B)
CC[C@H](C)[C@@H]1NC(=O)[C@H](CC(C)C)N(C)C(=O)C[C@@H](C(=O)N2CCOCC2)N(C)C(=O)[C@H](C2CCCC2)N(C)C(=O)C2(CCCCC2)NC(=O)[C@@H]2CCCN2C(=O)[C@H](CCc2cc(F)c(C(F)(F)F)c(F)c2)NC(=O)CN(C)C(=O)[C@H](Cc2ccc(C(F)(F)F)cc2)N2CCCC[C@@H](C2=O)N(C)C(=O)CN(C)C1=O [PP0561],NRAS/KRAS (ratio of KD value with respect to GDP-bound NRAS wild-type protein to KD value with respect to KRAS),[1],B (a compound having 3 or more and less than 10 is denoted as B)
same,HRAS/KRAS (ratio of KD value with respect to GDP-bound HRAS wild-type protein to KD value with respect to KRAS),[2],B (a compound having 3 or more and less than 10 is denoted as B)
CC[C@H](C)[C@@H]1NC(=O)[C@H](CC(C)C)N(C)C(=O)C[C@@H](C(=O)N2CCOCC2)N(C)C(=O)[C@H](C2CCCC2)N(C)C(=O)C2(CC(F)(F)C2)NC(=O)[C@@H]2CCCN2C(=O)[C@H](CCc2cc(F)c(C(F)(F)F)c(F)c2)NC(=O)CN(C)C(=O)[C@H](Cc2ccc(C(F)(F)F)cc2)N2CCCC[C@@H](C2=O)N(C)C(=O)CN(C)C1=O [PP0562],NRAS/KRAS (ratio of KD value with respect to GDP-bound NRAS wild-type protein to KD value with respect to KRAS),[1],B (a compound having 3 or more and less than 10 is denoted as B)
same,HRAS/KRAS (ratio of KD value with respect to GDP-bound HRAS wild-type protein to KD value with respect to KRAS),[2],B (a compound having 3 or more and less than 10 is denoted as B)
CC[C@H](C)[C@@H]1NC(=O)[C@H](CC(C)C)N(C)C(=O)C[C@@H](C(=O)N2CCOCC2)N(C)C(=O)[C@H](C2CCCC2)N(C)C(=O)C2(COC2)NC(=O)[C@@H]2CCCN2C(=O)[C@H](CCc2cc(F)c(C(F)(F)F)c(F)c2)NC(=O)CN(C)C(=O)[C@H](Cc2ccc(C(F)(F)F)cc2)N2CCCC[C@@H](C2=O)N(C)C(=O)CN(C)C1=O [PP0563],NRAS/KRAS (ratio of KD value with respect to GDP-bound NRAS wild-type protein to KD value with respect to KRAS),[1],B (a compound having 3 or more and less than 10 is denoted as B)
same,HRAS/KRAS (ratio of KD value with respect to GDP-bound HRAS wild-type protein to KD value with respect to KRAS),[2],B (a compound having 3 or more and less than 10 is denoted as B)
CC[C@H](C)[C@@H]1NC(=O)[C@H](CC(C)C)N(C)C(=O)C[C@@H](C(=O)N2CCOCC2)N(C)C(=O)[C@H](C2CCCC2)N(C)C(=O)C2(CCOCC2)NC(=O)[C@@H]2CCCN2C(=O)[C@H](CCc2cc(F)c(C(F)(F)F)c(F)c2)NC(=O)CN(C)C(=O)[C@H](Cc2ccc(C(F)(F)F)cc2)N2CCCC[C@@H](C2=O)N(C)C(=O)CN(C)C1=O [PP0564],NRAS/KRAS (ratio of KD value with respect to GDP-bound NRAS wild-type protein to KD value with respect to KRAS),[1],B (a compound having 3 or more and less than 10 is denoted as B)
same,HRAS/KRAS (ratio of KD value with respect to GDP-bound HRAS wild-type protein to KD value with respect to KRAS),[2],B (a compound having 3 or more and less than 10 is denoted as B)
CC[C@H](C)[C@@H]1NC(=O)[C@H](CC(C)C)N(C)C(=O)C[C@@H](C(=O)N2CCOCC2)N(C)C(=O)[C@H](C2CCCC2)N(C)C(=O)C(C)(C)NC(=O)[C@@H]2CCCN2C(=O)[C@H](CCc2cc(F)c(C(F)(F)F)c(F)c2)NC(=O)CN(C)C(=O)[C@H](Cc2ccc(C(F)(F)F)cc2)N2CCCC[C@@H](C2=O)N(C)C(=O)CN(C)C1=O [PP0565],NRAS/KRAS (ratio of KD value with respect to GDP-bound NRAS wild-type protein to KD value with respect to KRAS),[1],C (A compound having a KD ratio of 0.1 or more and less than 3 is denoted as C)
same,HRAS/KRAS (ratio of KD value with respect to GDP-bound HRAS wild-type protein to KD value with respect to KRAS),[2],B (a compound having 3 or more and less than 10 is denoted as B)
CC[C@H](C)[C@@H]1NC(=O)[C@H](CC(C)C)N(C)C(=O)C[C@@H](C(=O)N2CCOCC2)N(C)C(=O)[C@H](C2CCC2)N(C)C(=O)C2(CCCC2)NC(=O)[C@@H]2CCCN2C(=O)[C@H](CCc2cc(F)c(C(F)(F)F)c(F)c2)NC(=O)CN(C)C(=O)[C@H](Cc2ccc(C(F)(F)F)cc2)N2CCCC[C@@H](C2=O)N(C)C(=O)CN(C)C1=O [PP0566],NRAS/KRAS (ratio of KD value with respect to GDP-bound NRAS wild-type protein to KD value with respect to KRAS),[1],B (a compound having 3 or more and less than 10 is denoted as B)
same,HRAS/KRAS (ratio of KD value with respect to GDP-bound HRAS wild-type protein to KD value with respect to KRAS),[2],B (a compound having 3 or more and less than 10 is denoted as B)
CC[C@H](C)[C@@H]1NC(=O)[C@H](CC(C)C)N(C)C(=O)C[C@@H](C(=O)N2CCOCC2)N(C)C(=O)[C@H](C2CCCCC2)N(C)C(=O)C2(CCCC2)NC(=O)[C@@H]2CCCN2C(=O)[C@H](CCc2cc(F)c(C(F)(F)F)c(F)c2)NC(=O)CN(C)C(=O)[C@H](Cc2ccc(C(F)(F)F)cc2)N2CCCC[C@@H](C2=O)N(C)C(=O)CN(C)C1=O [PP0567],NRAS/KRAS (ratio of KD value with respect to GDP-bound NRAS wild-type protein to KD value with respect to KRAS),[1],B (a compound having 3 or more and less than 10 is denoted as B)
same,HRAS/KRAS (ratio of KD value with respect to GDP-bound HRAS wild-type protein to KD value with respect to KRAS),[2],B (a compound having 3 or more and less than 10 is denoted as B)
CC[C@H](C)[C@@H]1NC(=O)[C@H](CC(C)C)N(C)C(=O)C[C@@H](C(=O)N2CCOCC2)N(C)C(=O)[C@H](CC(F)(F)F)N(C)C(=O)C2(CCCC2)NC(=O)[C@@H]2CCCN2C(=O)[C@H](CCc2cc(F)c(C(F)(F)F)c(F)c2)NC(=O)CN(C)C(=O)[C@H](Cc2ccc(C(F)(F)F)cc2)N2CCCC[C@@H](C2=O)N(C)C(=O)CN(C)C1=O [PP0568],NRAS/KRAS (ratio of KD value with respect to GDP-bound NRAS wild-type protein to KD value with respect to KRAS),[1],B (a compound having 3 or more and less than 10 is denoted as B)
same,HRAS/KRAS (ratio of KD value with respect to GDP-bound HRAS wild-type protein to KD value with respect to KRAS),[2],B (a compound having 3 or more and less than 10 is denoted as B)
CC[C@H](C)[C@@H]1NC(=O)[C@H](CC(C)C)N(C)C(=O)C[C@@H](C(=O)N(C)C)N(C)C(=O)[C@H](C2CCCC2)N(C)C(=O)C2(CCCC2)NC(=O)[C@@H]2CCCN2C(=O)[C@H](CCc2cc(F)c(C(F)(F)F)c(F)c2)NC(=O)CN(C)C(=O)[C@H](Cc2ccc(C(F)(F)F)cc2)N2CCCC[C@@H](C2=O)N(C)C(=O)CN(C)C1=O [PP0569],NRAS/KRAS (ratio of KD value with respect to GDP-bound NRAS wild-type protein to KD value with respect to KRAS),[1],C (A compound having a KD ratio of 0.1 or more and less than 3 is denoted as C)
same,HRAS/KRAS (ratio of KD value with respect to GDP-bound HRAS wild-type protein to KD value with respect to KRAS),[2],B (a compound having 3 or more and less than 10 is denoted as B)
CC[C@H](C)[C@@H]1NC(=O)[C@H](CC(C)C)N(C)C(=O)C[C@@H](C(=O)N2CCC2)N(C)C(=O)[C@H](C2CCCC2)N(C)C(=O)C2(CCCC2)NC(=O)[C@@H]2CCCN2C(=O)[C@H](CCc2cc(F)c(C(F)(F)F)c(F)c2)NC(=O)CN(C)C(=O)[C@H](Cc2ccc(C(F)(F)F)cc2)N2CCCC[C@@H](C2=O)N(C)C(=O)CN(C)C1=O [PP0570],NRAS/KRAS (ratio of KD value with respect to GDP-bound NRAS wild-type protein to KD value with respect to KRAS),[1],B (a compound having 3 or more and less than 10 is denoted as B)
same,HRAS/KRAS (ratio of KD value with respect to GDP-bound HRAS wild-type protein to KD value with respect to KRAS),[2],B (a compound having 3 or more and less than 10 is denoted as B)
CC[C@H](C)[C@@H]1NC(=O)[C@H](CC(C)C)N(C)C(=O)C[C@@H](C(=O)N2CCCC2)N(C)C(=O)[C@H](C2CCCC2)N(C)C(=O)C2(CCCC2)NC(=O)[C@@H]2CCCN2C(=O)[C@H](CCc2cc(F)c(C(F)(F)F)c(F)c2)NC(=O)CN(C)C(=O)[C@H](Cc2ccc(C(F)(F)F)cc2)N2CCCC[C@@H](C2=O)N(C)C(=O)CN(C)C1=O [PP0571],NRAS/KRAS (ratio of KD value with respect to GDP-bound NRAS wild-type protein to KD value with respect to KRAS),[1],B (a compound having 3 or more and less than 10 is denoted as B)
same,HRAS/KRAS (ratio of KD value with respect to GDP-bound HRAS wild-type protein to KD value with respect to KRAS),[2],B (a compound having 3 or more and less than 10 is denoted as B)
CC[C@H](C)[C@@H]1NC(=O)[C@H](CC(C)C)N(C)C(=O)C[C@@H](C(=O)N2CCCCC2)N(C)C(=O)[C@H](C2CCCC2)N(C)C(=O)C2(CCCC2)NC(=O)[C@@H]2CCCN2C(=O)[C@H](CCc2cc(F)c(C(F)(F)F)c(F)c2)NC(=O)CN(C)C(=O)[C@H](Cc2ccc(C(F)(F)F)cc2)N2CCCC[C@@H](C2=O)N(C)C(=O)CN(C)C1=O [PP0572],NRAS/KRAS (ratio of KD value with respect to GDP-bound NRAS wild-type protein to KD value with respect to KRAS),[1],B (a compound having 3 or more and less than 10 is denoted as B)
same,HRAS/KRAS (ratio of KD value with respect to GDP-bound HRAS wild-type protein to KD value with respect to KRAS),[2],B (a compound having 3 or more and less than 10 is denoted as B)
